# In patent US20260069584A1, “METHODS OF TREATING CHRONIC MYELOID LEUKEMIA USING THE TYROSINE KINASE INHIBITOR VODOBATINIB” (Sun Pharma Advanced Research Company Ltd., priority 2022, published 2026):
# System: Ph+ CML (CP CML, AP CML and BP CML) and Ph+ ALL
# Experiment: Phase 1/2 dose-escalation and expansion study (Part B): disease response, all subjects
# Type: in vivo
# Excerpt: This was a Phase I/2, open-label, single-agent, multicenter, multi-dose, dose-escalation study in subjects with Philadelphia chromosome-positive Ph+ CML (CP CML, AP CML and BP CML) and Ph+ ALL. The primary objectives of this study were to determine the maximum tolerated dose (MTD; or recommended Phase 2 dose [RP2D]) of the compound of Formula I when administered orally and to evaluate its safety.
# For patient selection, key inclusion criteria included men or women aged ≥18 years with Eastern Cooperative Oncology Group performance status 0, 1, or 2 with Ph+ CML (CP CML, AP CML, or BP CML) who are resistant and/or intolerant to ≥3 prior TKIs, having adequate organ and immune system function as indicated by Table 09, obtained ≤2 weeks prior to the administration of the compound of Formula I. Subjects with presence of T3151 mutations were not included in the study.
# In this study, the dose-escalation cohort started with an accelerated titration study design (ATD) and shifted to a 3±3 design when subjects in the preceding ATD cohort experienced either grade 2 or higher adverse events (AEs) or dose-limiting toxicity (DLT) during Cycle 1 that was not clearly and incontrovertibly related to the underlying disease or concomitant medications. The DLT period consisted of 28 days (Cycle 1). Subjects experiencing DLTs were managed with dose delays and/or discontinuation and continued in the study until disease progression. Decisions to advance to a succeeding dose level occurred after the evaluation of safety and tolerability data for a given dose level.
# Accordingly, the eligible subjects were treated in 4-week cycles of once daily self-administration of the compound of Formula I. The administration was after an overnight fast, or after maintaining approximately 2 hours of fasting before and after the dosing in all cycles.
# For the cohorts, where the 3±3 design applies, 3 subjects were enrolled initially. If 2 of these subjects experienced a Grade 2 or more toxicity (that was not clearly and incontrovertibly related to the underlying disease or concomitant medications), subsequent cohorts were escalated according to smaller increments. Further, if there were no DLTs in the first 3 subjects, dose escalation to the next higher dose level was allowed to proceed. If 1 of the 3 subjects experienced a DLT, that dose level was expanded to 6 subjects (3 additional subjects were enrolled). If 2 subjects at a given dose level experienced a DLT, the MTD was considered to have been exceeded. The next lower dose level was expanded to 6 subjects, or if 6 subjects had already been enrolled and no more than 1 of the 6 subjects experienced a DLT, then this lower dose level was considered the MTD. Additional subjects were enrolled in dose escalation cohorts for further assessment of safety and efficacy of the compound of Formula 1 at doses that were tolerated (i.e., doses that have <2 DLTs in 6 enrolled subjects or <1 DLT in 3 enrolled subjects). Thus 204 mg was arrived at as MTD. A subject experiencing a DLT was allowed to continue therapy with a reduced dose. Subjects who experienced a DLT and recovered were treated at the next lower dose level until disease progression or other events requiring further dose reduction existed. For cohorts at Dose Level 2 or higher, a further dose reduction (i.e., up to 2 levels lower than their originally assigned dose) was implemented in the case of a further DLT or other non-DLT events requiring a dose reduction, if and when the event leading to dose reduction returned to Grade 1 or lower in severity. The reduced dose was re-escalated to the original or higher dose (i.e., the dose for which safety had been established in the dose escalation cohort) considering subject safety and response to the compound of Formula I. The subject was discontinued from treatment using the compound of Formula I, if dose reduction below 48 mg was required. […]
smiles,measurement,setting,value
"Cc1ccc(C(=O)NNC(=O)c2c(C)cccc2Cl)cc1C#Cc1cnc2ccccc2c1 [compound of Formula I, N′-(2-chloro-6-methylbenzoyl)-4-methyl-3-[2-(3-quinolyl)ethynyl]-benzohydrazide]",major molecular response,18 of the 41 enrolled subjects,43.9%
same,Major cytogenetic response (MCyR) as best response,19 subjects enrolled at 174 mg,10 subjects
same,complete cytogenetic response (CCyR),19 subjects enrolled at 174 mg,9 subjects
same,major hematological response (MaHR) as best response,19 subjects enrolled at 174 mg,all subjects
same,major molecular response as best response,19 subjects enrolled at 174 mg,4 subjects
same,partial cytogenetic response (PCyR),19 subjects enrolled at 174 mg,1 subjects
same,complete cytogenetic response,23 out of 41 enrolled subjects,56.1%
same,complete hematologic response,"29 out of 41 enrolled subjects, refractory, 2 or more prior TKIs",70.7%
same,individual subject outcome,"AP CML, 48 mg escalated, ~24 months, daily dose of 174 mg",attained MCyR
same,individual subject outcome,"CP CML, 12 mg escalated to 174 mg",achieved and maintained CCyR at doses ≥48 mg
same,individual subject outcome,"CP CML, 24 mg escalated to 126 mg and 174 mg",maintain CCyR and molecular response between MMR and M2
same,individual subject outcome,"CP CML, 126 mg reduced to 90 and 66 mg (thrombocytopenia), re-escalated to 126 mg and 174 mg",tolerated the re-escalated higher dose well
same,individual subject outcome,"CP CML, 174 mg reduced to 126 mg (grade 3/4 deranged pancreatic enzymes)",complete cytogenetic response and major molecular response
same,individual subject outcome,"CP CML, 204 mg reduced to 174 mg (memory loss)",maintains a complete cytogenetic response and major molecular response
same,individual subject outcome,"CP CML, 204 mg reduced to 174 mg (severe thrombocytopenia)",partial cytogenetic response and improved molecular response
same,individual subject outcome,"CP CML, 3 prior TKIs incl. Ponatinib, 48 mg escalated to 174 mg",re-attained major molecular and cytogenetic responses
same,individual subject outcome,"CP CML, 4 prior TKIs, 48 mg escalated to 90 mg and 174 mg",maintain complete cytogenetic and major molecular responses
same,individual subject outcome,"CP CML, 4 prior TKIs, 66 mg escalated to 90 mg",Ph+ cells decreased to minimal cytogenetic response
same,individual subject outcome,"CP CML, 6 prior TKIs, 174 mg escalated to 204 mg",improvement in cytogenetic response to minor cytogenetic response
same,individual subject outcome,"CP CML, F317L, 66 mg reduced to 48 mg (back pain of grade 2)",maintained CCyR and MMR at 48 mg dose for ˜2.5 years
same,individual subject outcome,"CP CML, M351T, 174 mg escalated to 204 mg at cycle 7, cycle 22",maintaining a complete hematological response and stable disease
same,individual subject outcome,"donor one CP CML, 2 prior TKIs, 174 mg escalated to 204 mg",maintaining a hematological response
same,individual subject outcome,"donor two CP CML, 2 prior TKIs, 174 mg escalated to 204 mg",improvement in cytogenetic response to partial cytogenetic response and improved molecular response
same,highest efficacious dose,"human, in vivo",204 mg
same,lowest dose observed to be therapeutically efficacious,"human, in vivo",48 mg
same,"best cytogenetic response, Ph+","one AP CML subject, Y253F, 48 mg escalated to 204 mg, 39 cycles, PCyR",10%
same,"best molecular response, BCR-ABL","one AP CML subject, Y253F, at 204 mg, 36 cycles",0.931 % IS
same,individual subject outcome,"subject at 66 mg, F317L with ACA",CCyR in cycle 7 and MMR in cycle 4
same,duration of maintained disease response at the lower dose,"subject with F317L, reduced from 66 mg to 48 mg",about 2.5 years
